Experiments:
S180 tumor = assay: Biodistribution in tumor-bearing mice; type: in vivo; conditions: for Tumor/blood ratio / Tumor/muscle ratio / Blood / Bone / Heart / Kidney / Liver / Lung / Muscle / Small intestine / Spleen / Thyroid / Tumor: i.v., mice bearing S180 tumor; for Tumor/lung ratio / target/non-target ratio compared with 99mTc-CNPEDG / tumor uptake compared with 99mTc-CNPEDG / tumor/muscle, tumor/blood and tumor/lung ratio compared with p-substituted 99mTc complexes: 120 min p.i.
Protocol: The mice bearing S180 tumors were injected intravenously via the tail vein respectively with the solutions (0.1 mL, 370 kBq) containing the radioactive drugs of Examples 1-4. The mice bearing S180 tumors were sacrificed by decapitation at different time points (30 min, 120 min) after the injection (5 mice for each time point). After dissection, the heart, liver, lung, kidney, spleen, bone, muscle, small intestine, blood and tumors were harvested, and measured for radioactivity with the γ-counter. The biodistribution individual organs or tissues was expressed as the percentage of the injected dose per gram of organ or tissue (% ID/g).

[1] = Determination of lipid-water partition coefficient (n-octanol/PBS pH 7.4); type: physicochemical; conditions: n-octanol / PBS 0.025 M; for logP: n-octanol/phosphate buffer solution (PBS)
Protocol: A 2 mL centrifuge tube was added with 100 µL (10µCi) of a labeling solution, then added with 950 µL of n-octanol and 850 µL of phosphate buffer solution (PBS, 0.025 M, pH=7.4). The 2 mL centrifuge tube was subjected to vortex for 3 min (2,500 rpm) and standing until the reaction solution was layered, and then centrifuged at 9,000 rpm for 5 min. Three samples (each for 100 µL) were collected from each of the two phases, and placed in γ-counter for the determination of radioactive counting. The lipid-water partition coefficient (P) was calculated by Organic phase radioactive counting/ water phase radioactive counting, and was usually expressed as Log P. The log P values of the radioactive compounds provided in Examples 1-4 were shown in Table 3.

[2] = 120 min, mean ± SD, listed as 99mTc-4-CNPEDG

SMILES | Tumor/blood ratio (S180 tumor; 120 min, mean ± SD) | Tumor/muscle ratio (S180 tumor; 120 min, mean ± SD) | Tumor/lung ratio (S180 tumor; mean ± SD) | Blood (S180 tumor; 30 min, n=5, mean ± SD) | Bone (S180 tumor; 30 min, n=5, mean ± SD) | Heart (S180 tumor; 30 min, n=5, mean ± SD) | Kidney (S180 tumor; 30 min, n=5, mean ± SD) | Liver (S180 tumor; 30 min, n=5, mean ± SD) | Lung (S180 tumor; 30 min, n=5, mean ± SD) | Muscle (S180 tumor; 30 min, n=5, mean ± SD) | Small intestine (S180 tumor; 30 min, n=5, mean ± SD) | Spleen (S180 tumor; 30 min, n=5, mean ± SD) | Thyroid (S180 tumor; 30 min, n=5, mean ± SD) | Tumor (S180 tumor; 30 min, n=5, mean ± SD) | Blood (S180 tumor; 120 min, mean ± SD) | Kidney (S180 tumor; 120 min, mean ± SD) | Liver (S180 tumor; 120 min, mean ± SD) | Lung (S180 tumor; 120 min, mean ± SD) | Muscle (S180 tumor; 120 min, mean ± SD) | Tumor (S180 tumor; 120 min, mean ± SD) | further results
O=C(NC1C(O)OC(CO)C(O)C1O)c1ccc([N+]#[C][99Tc+]([C]#[N+]c2ccc(C(=O)NC3C(O)OC(CO)C(O)C3O)cc2)([C]#[N+]c2ccc(C(=O)NC3C(O)OC(CO)C(O)C3O)cc2)([C]#[N+]c2ccc(C(=O)NC3C(O)OC(CO)C(O)C3O)cc2)([C]#[N+]c2ccc(C(=O)NC3C(O)OC(CO)C(O)C3O)cc2)[C]#[N+]c2ccc(C(=O)NC3C(O)OC(CO)C(O)C3O)cc2)cc1 (centres unmarked) [^99mTc-4-CNBzDG] | 0.47 ± 0.02 | 2.34 ± 0.18 | 0.49 ± 0.02 | – | – | – | – | – | – | – | – | – | – | – | – | – | – | – | – | – | –
O=C(NC1C(O)OC(CO)C(O)C1O)c1ccc(CC[N+]#[C][99Tc+]([C]#[N+]CCc2ccc(C(=O)NC3C(O)OC(CO)C(O)C3O)cc2)([C]#[N+]CCc2ccc(C(=O)NC3C(O)OC(CO)C(O)C3O)cc2)([C]#[N+]CCc2ccc(C(=O)NC3C(O)OC(CO)C(O)C3O)cc2)([C]#[N+]CCc2ccc(C(=O)NC3C(O)OC(CO)C(O)C3O)cc2)[C]#[N+]CCc2ccc(C(=O)NC3C(O)OC(CO)C(O)C3O)cc2)cc1 (centres unmarked) [^99mTc-4-CNPeDG] | 10.17 ± 1.95 | 9.69 ± 1.81 | 1.81 ± 0.30 | 2.42 ± 0.16 % ID/g | 1.10 ± 0.07 % ID/g | 1.15 ± 0.04 % ID/g | 7.32 ± 0.90 % ID/g | 0.95 ± 0.03 % ID/g | 2.80 ± 0.13 % ID/g | 0.68 ± 0.05 % ID/g | 1.38 ± 0.20 % ID/g | 0.70 ± 0.02 % ID/g | 0.02 ± 0.00 %ID/g | 2.80 ± 0.04 % ID/g | 0.10 ± 0.04 % ID/g | 2.98 ± 0.74 % ID/g | 0.38 ± 0.08 % ID/g | 0.23 ± 0.03 % ID/g | 0.10 ± 0.02 % ID/g | 0.95 ± 0.21 % ID/g | Log P [1]: -3.593 ± 0.012; Tumor/blood ratio (S180 tumor; 30 min, n=5, mean ± SD): 1.16 ± 0.09; Tumor/muscle ratio (S180 tumor; 30 min, n=5, mean ± SD): 4.16 ± 0.35; Bone (S180 tumor; 120 min, mean ± SD): 0.18 ± 0.03 % ID/g; Heart (S180 tumor; 120 min, mean ± SD): 0.15 ± 0.02 % ID/g; Small intestine (S180 tumor; 120 min, mean ± SD): 0.31 ± 0.07 % ID/g; Spleen (S180 tumor; 120 min, mean ± SD): 0.17 ± 0.03 % ID/g; Thyroid (S180 tumor; 120 min, mean ± SD): 0.003 ± 0.001 %ID/g; Tumor/blood ratio (S180 tumor; [2]): 3.29 ± 0.12; Tumor/muscle ratio (S180 tumor; [2]): 5.21 ± 0.50; target/non-target ratio compared with 99mTc-CNPEDG (S180 tumor; in words): better target/non-target ratio; tumor uptake compared with 99mTc-CNPEDG (S180 tumor; in words): lower tumor uptake
O=C(NC1C(O)OC(CO)C(O)C1O)c1ccc(C[N+]#[C][99Tc+]([C]#[N+]Cc2ccc(C(=O)NC3C(O)OC(CO)C(O)C3O)cc2)([C]#[N+]Cc2ccc(C(=O)NC3C(O)OC(CO)C(O)C3O)cc2)([C]#[N+]Cc2ccc(C(=O)NC3C(O)OC(CO)C(O)C3O)cc2)([C]#[N+]Cc2ccc(C(=O)NC3C(O)OC(CO)C(O)C3O)cc2)[C]#[N+]Cc2ccc(C(=O)NC3C(O)OC(CO)C(O)C3O)cc2)cc1 (centres unmarked) [^99mTc-CNPEDG, reference compound] | 3.29 ± 0.12 | 5.21 ± 0.50 | – | – | – | – | – | – | – | – | – | – | – | – | 1.29 ± 0.16 % ID/g | 7.56 ± 0.94 % ID/g | 2.52 ± 0.26 % ID/g | 2.39 ± 0.31 % ID/g | 0.82 ± 0.08 % ID/g | 4.25 ± 0.56 % ID/g | –
O=C(NC1C(O)OC(CO)C(O)C1O)c1cccc([N+]#[C][99Tc+]([C]#[N+]c2cccc(C(=O)NC3C(O)OC(CO)C(O)C3O)c2)([C]#[N+]c2cccc(C(=O)NC3C(O)OC(CO)C(O)C3O)c2)([C]#[N+]c2cccc(C(=O)NC3C(O)OC(CO)C(O)C3O)c2)([C]#[N+]c2cccc(C(=O)NC3C(O)OC(CO)C(O)C3O)c2)[C]#[N+]c2cccc(C(=O)NC3C(O)OC(CO)C(O)C3O)c2)c1 (centres unmarked) [^99mTc-3-CNBzDG] | 5.39 ± 0.79 | 6.16 ± 0.71 | 2.01 ± 0.35 | 2.53 ± 0.83 % ID/g | 1.44 ± 0.29 % ID/g | 1.44 ± 0.21 % ID/g | 6.69 ± 0.68 % ID/g | 1.38 ± 0.24 % ID/g | 4.00 ± 0.52 % ID/g | 0.77 ± 0.06 % ID/g | 2.05 ± 0.29 % ID/g | 1.06 ± 0.27 % ID/g | 0.03 ± 0.01 %ID/g | 2.51 ± 0.52 % ID/g | 0.27 ± 0.02 % ID/g | 4.49 ± 0.56 % ID/g | 0.89 ± 0.09 % ID/g | 0.76 ± 0.20 % ID/g | 0.24 ± 0.05 % ID/g | 1.47 ± 0.22 % ID/g | logP [1]: -3.74 ± 0.038; Tumor/blood ratio (S180 tumor; 30 min, n=5, mean ± SD): 1.04 ± 0.22; Tumor/muscle ratio (S180 tumor; 30 min, n=5, mean ± SD): 3.28 ± 0.66; Bone (S180 tumor; 120 min, mean ± SD): 0.42 ± 0.03 % ID/g; Heart (S180 tumor; 120 min, mean ± SD): 0.54 ± 0.07 % ID/g; Small intestine (S180 tumor; 120 min, mean ± SD): 0.70 ± 0.10 % ID/g; Spleen (S180 tumor; 120 min, mean ± SD): 0.43 ± 0.17 % ID/g; Thyroid (S180 tumor; 120 min, mean ± SD): 0.01 ± 0.00 %ID/g; target/non-target ratio compared with 99mTc-CNPEDG (S180 tumor; in words): better target/non-target ratio; tumor uptake compared with 99mTc-CNPEDG (S180 tumor; in words): lower tumor uptake; tumor/muscle, tumor/blood and tumor/lung ratio compared with p-substituted 99mTc complexes (S180 tumor; in words): higher
O=C(Cc1ccc(C[N+]#[C][99Tc+]([C]#[N+]Cc2ccc(CC(=O)NC3C(O)OC(CO)C(O)C3O)cc2)([C]#[N+]Cc2ccc(CC(=O)NC3C(O)OC(CO)C(O)C3O)cc2)([C]#[N+]Cc2ccc(CC(=O)NC3C(O)OC(CO)C(O)C3O)cc2)([C]#[N+]Cc2ccc(CC(=O)NC3C(O)OC(CO)C(O)C3O)cc2)[C]#[N+]Cc2ccc(CC(=O)NC3C(O)OC(CO)C(O)C3O)cc2)cc1)NC1C(O)OC(CO)C(O)C1O (centres unmarked) [^99mTc-4-CNMBDG] | 10.06 ± 1.54 | 7.14 ± 1.11 | – | 4.08 ± 0.57 % ID/g | 3.05 ± 0.62 % ID/g | 2.67 ± 0.41 % ID/g | 10.18 ± 1.28 % ID/g | 3.00 ± 0.55 % ID/g | 5.89 ± 0.59 % ID/g | 1.96 ± 0.50 % ID/g | 4.04 ± 0.87 % ID/g | 2.24 ± 0.38 % ID/g | 0.07 ± 0.01 %ID/g | 6.46 ± 1.86 % ID/g | 0.64 ± 0.22 % ID/g | 7.37 ± 1.71 % ID/g | 2.43 ± 0.49 % ID/g | 1.31 ± 0.44 % ID/g | 0.86 ± 0.15 % ID/g | 6.22 ± 1.77 % ID/g | logP [1]: -3.1 ± 0.036; Tumor/blood ratio (S180 tumor; 30 min, n=5, mean ± SD): 1.57 ± 0.36; Tumor/muscle ratio (S180 tumor; 30 min, n=5, mean ± SD): 3.52 ± 1.35; Bone (S180 tumor; 120 min, mean ± SD): 1.27 ± 0.35 % ID/g; Heart (S180 tumor; 120 min, mean ± SD): 1.31 ± 0.18 % ID/g; Small intestine (S180 tumor; 120 min, mean ± SD): 1.65 ± 0.43 % ID/g; Spleen (S180 tumor; 120 min, mean ± SD): 1.28 ± 0.34 % ID/g; Thyroid (S180 tumor; 120 min, mean ± SD): 0.03 ± 0.01 %ID/g; tumor uptake compared with 99mTc-CNPEDG (S180 tumor; in words): higher tumor uptake; clearance in blood (S180 tumor; compared with 99mTc-CNPEDG, in words): faster clearance in blood
O=C(NC1C(O)OC(CO)C(O)C1O)c1cccc(C[N+]#[C][99Tc+]([C]#[N+]Cc2cccc(C(=O)NC3C(O)OC(CO)C(O)C3O)c2)([C]#[N+]Cc2cccc(C(=O)NC3C(O)OC(CO)C(O)C3O)c2)([C]#[N+]Cc2cccc(C(=O)NC3C(O)OC(CO)C(O)C3O)c2)([C]#[N+]Cc2cccc(C(=O)NC3C(O)OC(CO)C(O)C3O)c2)[C]#[N+]Cc2cccc(C(=O)NC3C(O)OC(CO)C(O)C3O)c2)c1 (centres unmarked) [^99mTc-3-CNPEDG] | 6.40 ± 1.45 | 8.76 ± 1.14 | 3.26 ± 0.37 | 2.82 ± 0.30 % ID/g | 1.26 ± 0.23 % ID/g | 1.18 ± 0.12 % ID/g | 9.69 ± 3.48 % ID/g | 1.30 ± 0.06 % ID/g | 3.10 ± 0.22 % ID/g | 0.82 ± 0.24 % ID/g | 2.19 ± 0.69 % ID/g | 0.86 ± 0.09 % ID/g | 0.04 ± 0.01 %ID/g | 2.72 ± 0.36 % ID/g | 0.22 ± 0.07 % ID/g | 4.70 ± 0.81 % ID/g | 0.68 ± 0.07 % ID/g | 0.42 ± 0.09 % ID/g | 0.16 ± 0.04 % ID/g | 1.35 ± 0.20 % ID/g | logP [1]: -3.39 ± 0.166; Tumor/blood ratio (S180 tumor; 30 min, n=5, mean ± SD): 0.97 ± 0.07; Tumor/muscle ratio (S180 tumor; 30 min, n=5, mean ± SD): 3.49 ± 0.71; Bone (S180 tumor; 120 min, mean ± SD): 0.30 ± 0.06 % ID/g; Heart (S180 tumor; 120 min, mean ± SD): 0.23 ± 0.05 % ID/g; Small intestine (S180 tumor; 120 min, mean ± SD): 0.43 ± 0.11 % ID/g; Spleen (S180 tumor; 120 min, mean ± SD): 0.25 ± 0.06 % ID/g; Thyroid (S180 tumor; 120 min, mean ± SD): 0.01 ± 0.00 %ID/g; target/non-target ratio compared with 99mTc-CNPEDG (S180 tumor; in words): better target/non-target ratio; tumor uptake compared with 99mTc-CNPEDG (S180 tumor; in words): lower tumor uptake; tumor/muscle, tumor/blood and tumor/lung ratio compared with p-substituted 99mTc complexes (S180 tumor; in words): higher

From patent publication US20230263914A1, “BENZENE RING-CONTAINING GLUCOSE DERIVATIVE AND USE THEREOF” (priority 2020, published 2023)
